Columns and labels:
[1] = system: AsPC-1 (K-Ras G12D); experiment: Potency assay: pERK; assay type: cell-based, human; conditions: Homo sapiens, ASPC1; AsPC-1 KRAS G12D; read-out: pERK EC50
Summary of the method: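 pERK decrease measured after 4 h compound treatment at 37 °C (10 three-fold dilutions, duplicate wells), by either fixed-cell In-Cell Western with DRAQ5 counterstain or AlphaLISA on lysates. Signal fitted against log concentration with a four-parameter model to give IC50.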

[2] = target: KRAS G13D (Homo sapiens (Human), UniProt P01116+P62937, G13D); experiment: Ras-Raf disruption/FRET/MOA assay, KRAS G13D; assay type: biochemical
Summary of the method: (§1)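 His6-Ras-GMPPNP 12.5 nM + GST-BRAF^RBD 50 nM + CypA 25 μM; HEPES pH 7.3, 5 mM MgCl2, 0.1% BSA, 0.002% Tween20. Cpd 10-pt 3-fold from 30 μM final, 3 h 25° C. Eu/APC antibody detection 1.5 h; TR-FRET ratio drop vs DMSO → IC50.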

[3] = target: KRAS G12S (Homo sapiens (Human), UniProt P01116+P62937, G12S); experiment: Ras-Raf disruption/FRET/MOA assay, KRAS G12S; assay type: biochemical
Summary of the method: as §1

[4] = target: KRAS G13C (Homo sapiens (Human), UniProt P01116+P62937, G13C); experiment: Ras-Raf disruption/FRET/MOA assay, KRAS G13C; assay type: biochemical
Summary of the method: as §1

[5] = target: KRAS G12V (Homo sapiens (Human), UniProt P01116+P62937, G12V); experiment: Ras-Raf disruption/FRET/MOA assay, KRAS G12V; assay type: biochemical
Summary of the method: as §1

[6] = target: KRAS G12D (Homo sapiens (Human), UniProt P01116+P62937, G12D); experiment: Ras-Raf disruption/FRET/MOA assay, KRAS G12D; assay type: biochemical
Summary of the method: as §1

[7] = target: KRAS WT (Homo sapiens (Human), UniProt P01116+P62937); experiment: Ras-Raf disruption/FRET/MOA assay, KRAS WT; assay type: biochemical
Summary of the method: as §1

[8] = target: KRAS G12C (Homo sapiens (Human), UniProt P01116+P62937, G12C); experiment: Ras-Raf disruption/FRET/MOA assay, KRAS G12C; assay type: biochemical
Summary of the method: as §1

[9] = target: KRAS Q61H (Homo sapiens (Human), UniProt P01116+P62937, Q61H); experiment: Ras-Raf disruption/FRET/MOA assay, KRAS Q61H; assay type: biochemical
Excerpt: (§2) Disruption of B-Raf Ras-Binding Domain (BRAF^RBD) Interaction with K-Ras by Compounds of the Invention (Also Called a FRET Assay or an MOA Assay)
(§3) Note—The following protocol describes a procedure for monitoring disruption of K-Ras G12C (GMP-PNP) binding to BRAF^RBD by a compound of the invention. This protocol may also be executed substituting other Ras proteins or nucleotides, such as K-Ras G12D and K-Ras G13D.
(§4) The purpose of this biochemical assay was to measure the ability of test compounds to facilitate ternary complex formation between a nucleotide-loaded K-Ras isoform and Cyclophilin A; the resulting ternary complex disrupts binding to a BRAF^RBD construct, inhibiting K-Ras signaling through a RAF effector. Data is reported as IC50 values.
(§5) In assay buffer containing 25 mM HEPES pH 7.3, 0.002% Tween20, 0.1% BSA, 100 mM NaCl and 5 mM MgCl2, tagless Cyclophilin A, His6-K-Ras-GMPPNP, and GST-BRAF^RBD were combined in a 384-well assay plate at final concentrations of 25 μM, 12.5 nM, and 50 nM, respectively. Compound was present in plate wells as a 10-point 3-fold dilution series starting at a final concentration of 30 μM. After incubation at 25° C. for 3 hours, a mixture of anti-His Eu—W1024 and anti-GST allophycocyanin was then added to assay sample wells at final concentrations of 10 nM and 50 nM, respectively, and the reaction incubated for an additional 1.5 hours. […] Compounds that facilitate disruption of a K-Ras: RAF complex were identified as those eliciting a decrease in the TR-FRET ratio relative to DMSO control wells.

[10] = target: NRAS G12C (Homo sapiens (Human), UniProt P01111+P62937, G12C); experiment: Ras-Raf disruption/FRET/MOA assay, NRAS G12C; assay type: biochemical
Summary of the method: as §1

[11] = target: NRAS WT (Homo sapiens (Human), UniProt P01111+P62937); experiment: Ras-Raf disruption/FRET/MOA assay, NRAS WT; assay type: biochemical
Excerpt: as §2, §3, §4, §5

[12] = target: NRAS Q61K (Homo sapiens (Human), UniProt P01111+P62937, Q61K); experiment: Ras-Raf disruption/FRET/MOA assay, NRAS Q61K; assay type: biochemical
Excerpt: as §2, §3, §4, §5

[13] = target: NRAS Q61R (Homo sapiens (Human), UniProt P01111+P62937, Q61R); experiment: Ras-Raf disruption/FRET/MOA assay, NRAS Q61R; assay type: biochemical
Excerpt: as §2, §3, §4, §5

Chain of KRAS G12C (P01116-2 other isoform, or with tags, fused parts or gaps G12C): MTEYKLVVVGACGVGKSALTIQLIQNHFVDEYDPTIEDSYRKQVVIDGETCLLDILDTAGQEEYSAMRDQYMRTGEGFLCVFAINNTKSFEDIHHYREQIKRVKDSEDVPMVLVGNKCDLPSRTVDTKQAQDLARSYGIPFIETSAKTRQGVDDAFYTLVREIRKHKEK
Chain of KRAS G12C (P62937 whole entry): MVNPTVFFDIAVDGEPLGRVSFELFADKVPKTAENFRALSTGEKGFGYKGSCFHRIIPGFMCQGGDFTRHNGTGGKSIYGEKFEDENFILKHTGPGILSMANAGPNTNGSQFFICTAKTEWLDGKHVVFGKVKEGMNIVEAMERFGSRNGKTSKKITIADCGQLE
Chain of KRAS G13C (P01116 other isoform, or with tags, fused parts or gaps G13C): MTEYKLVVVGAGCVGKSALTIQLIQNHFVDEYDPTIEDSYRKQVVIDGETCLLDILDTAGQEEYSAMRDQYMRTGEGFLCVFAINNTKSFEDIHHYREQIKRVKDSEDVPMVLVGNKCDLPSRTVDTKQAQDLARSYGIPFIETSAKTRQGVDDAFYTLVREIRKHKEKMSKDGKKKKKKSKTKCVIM
Chain of KRAS G13C (P62937 whole entry): as the sequence (P62937 whole entry) above
Chain of KRAS G12S (P01116 other isoform, or with tags, fused parts or gaps G12S): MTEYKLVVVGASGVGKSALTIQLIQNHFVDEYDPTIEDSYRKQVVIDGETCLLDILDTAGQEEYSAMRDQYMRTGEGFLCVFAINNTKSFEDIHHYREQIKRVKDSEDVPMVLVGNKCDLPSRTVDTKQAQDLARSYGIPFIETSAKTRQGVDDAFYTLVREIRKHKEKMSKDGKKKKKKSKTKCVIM
Chain of KRAS G12S (P62937 whole entry): as the sequence (P62937 whole entry) above
Chain of KRAS Q61H (P01116 other isoform, or with tags, fused parts or gaps Q61H): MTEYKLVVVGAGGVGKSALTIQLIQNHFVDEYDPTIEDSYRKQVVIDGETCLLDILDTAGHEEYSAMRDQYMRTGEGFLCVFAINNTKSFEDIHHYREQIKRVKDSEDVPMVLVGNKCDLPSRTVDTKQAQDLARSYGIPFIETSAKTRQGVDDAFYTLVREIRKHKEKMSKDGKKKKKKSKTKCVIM
Chain of KRAS Q61H (P62937 whole entry, the tested form may be a part): as the sequence (P62937 whole entry) above
Chain of KRAS G12V (P01116 other isoform, or with tags, fused parts or gaps G12V): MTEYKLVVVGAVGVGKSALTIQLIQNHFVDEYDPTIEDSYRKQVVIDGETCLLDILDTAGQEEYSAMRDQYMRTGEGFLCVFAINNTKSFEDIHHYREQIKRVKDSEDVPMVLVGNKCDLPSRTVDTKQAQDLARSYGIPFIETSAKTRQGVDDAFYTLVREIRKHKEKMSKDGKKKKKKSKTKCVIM
Chain of KRAS G12V (P62937 whole entry): as the sequence (P62937 whole entry) above
Chain of NRAS WT (P01111 whole entry): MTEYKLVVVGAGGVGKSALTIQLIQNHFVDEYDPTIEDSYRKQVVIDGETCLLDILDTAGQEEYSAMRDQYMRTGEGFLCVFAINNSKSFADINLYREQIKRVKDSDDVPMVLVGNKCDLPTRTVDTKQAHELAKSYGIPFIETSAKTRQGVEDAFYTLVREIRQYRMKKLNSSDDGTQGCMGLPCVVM
Chain of NRAS WT (P62937 whole entry): as the sequence (P62937 whole entry) above
Chain of NRAS Q61R (P01111 whole entry Q61R): as the sequence (P01111 whole entry) above, with Q61R counted along it
Chain of NRAS Q61R (P62937 whole entry): as the sequence (P62937 whole entry) above
Chain of KRAS WT (P01116 other isoform, or with tags, fused parts or gaps): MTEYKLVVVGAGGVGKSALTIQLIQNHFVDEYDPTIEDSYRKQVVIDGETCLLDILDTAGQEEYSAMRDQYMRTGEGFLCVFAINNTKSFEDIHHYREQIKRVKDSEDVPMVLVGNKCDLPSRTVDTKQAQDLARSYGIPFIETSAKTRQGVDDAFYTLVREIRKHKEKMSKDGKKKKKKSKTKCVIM
Chain of KRAS WT (P62937 whole entry): as the sequence (P62937 whole entry) above
Chain of KRAS G13D (P01116 other isoform, or with tags, fused parts or gaps G13D): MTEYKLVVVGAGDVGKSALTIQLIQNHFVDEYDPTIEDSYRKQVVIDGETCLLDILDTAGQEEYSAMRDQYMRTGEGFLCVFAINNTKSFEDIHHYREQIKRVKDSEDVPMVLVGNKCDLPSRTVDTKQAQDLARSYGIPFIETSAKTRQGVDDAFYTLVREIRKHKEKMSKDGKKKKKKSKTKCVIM
Chain of KRAS G13D (P62937 whole entry): as the sequence (P62937 whole entry) above
Chain of NRAS G12C (P01111 whole entry G12C): as the sequence (P01111 whole entry) above, with G12C counted along it
Chain of NRAS G12C (P62937 whole entry): as the sequence (P62937 whole entry) above
Chain of NRAS Q61K (P01111 whole entry Q61K): as the sequence (P01111 whole entry) above, with Q61K counted along it
Chain of NRAS Q61K (P62937 whole entry): as the sequence (P62937 whole entry) above
Chain of KRAS G12D (P01116 other isoform, or with tags, fused parts or gaps G12D): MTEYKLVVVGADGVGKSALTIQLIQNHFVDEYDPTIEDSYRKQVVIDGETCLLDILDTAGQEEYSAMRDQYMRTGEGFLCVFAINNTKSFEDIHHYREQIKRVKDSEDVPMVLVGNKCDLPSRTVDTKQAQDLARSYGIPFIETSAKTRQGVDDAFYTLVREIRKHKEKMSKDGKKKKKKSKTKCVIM
Chain of KRAS G12D (P62937 whole entry): as the sequence (P62937 whole entry) above

Compound | EC50 [1] [nM] | IC50 [2] [nM] | IC50 [3] [nM] | IC50 [4] [nM] | IC50 [5] [nM] | IC50 [6] [nM] | IC50 [7] [nM] | IC50 [8] [nM] | IC50 [9] [nM] | IC50 [10] [nM] | IC50 [11] [nM] | IC50 [12] [nM] | IC50 [13] [nM]
CCn1c(-c2cccnc2[C@H](C)OC)c2c3cc(ccc31)-c1cc(O)cc(c1)C[C@H](NC(=O)[C@@H](C(C)C)N(C)C(=O)[C@@]1(C)CCCN1C(=O)[C@H]1CN1)C(=O)N1CCC[C@H](N1)C(=O)OCC(C)(C)C2 [Example 240] | < 5000 | 1000 to 10000 | 1000 to 10000 | 1000 to 10000 | 1000 to 10000 | 1000 to 10000 | 100 to 1000 | 100 to 1000 | 100 to 1000 | 100 to 1000 | 1000 to 10000 | > 10000 | 1000 to 10000
CCn1c(-c2cccnc2[C@H](C)OC)c2c3cc(ccc31)-c1cc(O)cc(c1)C[C@H](NC(=O)[C@H](C(C)C)N(C)C(=O)[C@@]1(C)CCCN1C(=O)[C@@H]1CN1)C(=O)N1CCC[C@H](N1)C(=O)OCC(C)(C)C2 [Example 241] | < 5000 | 10 to 100 | 10 to 100 | 10 to 100 | 10 to 100 | 10 to 100 | 10 to 100 | < 10 | 10 to 100 | < 10 | 10 to 100 | 100 to 1000 | 100 to 1000
CCn1c(-c2cccnc2[C@H](C)OC)c2c3cc(ccc31)-c1cc(O)cc(c1)C[C@H](NC(=O)[C@@H](C(C)C)N(C)C(=O)[C@@]1(C)CCCN1C(=O)[C@@H]1CN1)C(=O)N1CCC[C@H](N1)C(=O)OCC(C)(C)C2 [Example 242] | < 5000 | 100 to 1000 | 100 to 1000 | 1000 to 10000 | 1000 to 10000 | 100 to 1000 | 100 to 1000 | 100 to 1000 | 100 to 1000 | 100 to 1000 | 100 to 1000 | 1000 to 10000 | 1000 to 10000
CCn1c(-c2cccnc2[C@H](C)OC)c2c3cc(ccc31)-c1cc(O)cc(c1)C[C@H](NC(=O)[C@H](C(C)C)N(C)C(=O)[C@]1(C)CCCN1C(=O)[C@H]1CN1)C(=O)N1CCC[C@H](N1)C(=O)OCC(C)(C)C2 [Example 243] | < 5000 | 100 to 1000 | 100 to 1000 | 100 to 1000 | 100 to 1000 | 100 to 1000 | 100 to 1000 | 10 to 100 | 100 to 1000 | 10 to 100 | 100 to 1000 | 1000 to 10000 | 1000 to 10000

Source: US20250195521A1 (Revolution Medicines, Inc., priority 2020, published 2025)
